Test: Amounts of carbon dioxide absorption in test liquid (physical absorption, pressure-drop method)
Type: physicochemical
Settings: 30° C.; for Amount of carbon dioxide absorption, not in coexistence of water a: 100% by mass of compound as test liquid; for Amount of carbon dioxide absorption, not in coexistence of water a / Amount of carbon dioxide absorption, in coexistence of water b: calculated via Henry's constant for P 3.0 MPa; for Amount of carbon dioxide absorption, in coexistence of water b: mixture of 90% by mass of compound and 10% by mass of water; for Carbon dioxide absorption ratio b/a: ratio of absorption in coexistence of water to not in coexistence of water, 3 MPa
Description: A 300-mL pressure-resistant container (A) connected to a carbon dioxide cylinder by piping, and a 150-mL pressure-resistant container were prepared, and amounts of carbon dioxide absorption were determined through a procedure of (i) to (iv) shown below. A regulator and a pressure gage were connected between the carbon dioxide cylinder and pressure-resistant container (A), and pressure-resistant container (A) and pressure-resistant container (B) were soaked in a water bath.
(i) The temperature of the water bath was set to 30° C., and pressure-resistant container (B) containing 50 mL of a test liquid was degassed under reduced pressure with a vacuum pump.
(ii) Pressure-resistant container (A) was filled with carbon dioxide depressurized to 0.20 MPa through the regulator, and the pressure at that time was measured. Thereafter, pressure-resistant container (A) and pressure-resistant container (B) were connected together, and the pressure after 1 hour was measured. Assuming that carbon dioxide in an amount corresponding to the reduction of pressure was absorbed in the test liquid, the amount in moles of adsorbed carbon dioxide per unit mass (mol/kg) was calculated.
(iii) The same operation as (ii) was performed at 0.35 MPa, 0.50 MPa, 0.60 MPa, and 0.80 MPa, and the Henry's constant, Hb (MPa·kg/mol), which indicates the pressure dependence of the amount in moles of adsorbed carbon dioxide (mol/kg), was calculated.
(iv) The amount of carbon dioxide absorption per unit mass of the test liquid (g/kg) was calculated from the following expression:
n: molar mass of carbon dioxide=44 (g/mol).
In the calculation, P (MPa) was 3.0 MPa, which is a representative condition for using physical absorption liquid.
For the case that an acidic gas removing agent (100% by mass of compound) was used as a test liquid (not in coexistence of water) and the case that a mixture of 90% by mass of the acidic gas removing agent (compound) and 10% by mass of water was used as a test liquid (in the coexistence of water), the amounts of carbon dioxide absorption in the test liquids were determined.
The carbon dioxide absorption ratio is the ratio (b/a) of the amount of carbon dioxide absorption per unit mass of a mixture of 90% by mass of an acidic gas removing agent and 10% by mass of water, b (g/kg), to the amount of carbon dioxide absorption per unit mass of the acidic gas removing agent, a (g/kg).

SMILES | Amount of carbon dioxide absorption, not in coexistence of water a | Amount of carbon dioxide absorption, in coexistence of water b | Carbon dioxide absorption ratio b/a
CCCCOCC(C)OCC(C)OCC(C)OCC(C)OCC(C)OCC(C)OCC(C)OC (stereo not drawn) [B-1] | 134 g/kg | 120 g/kg | 0.89
COC(C)COC(C)COC(C)COC(C)COC(C)COC(C)COCCOC(C)(C)C (stereo not drawn) [B-4] | 142 g/kg | 128 g/kg | 0.90
CCCCOCCOCC(C)OCC(C)OCC(C)OCC(C)OCC(C)OC (stereo not drawn) [B-2] | 157 g/kg | 140 g/kg | 0.89
CC(O)COC(C)COC(C)CO (stereo not drawn) [C-2, tripropylene glycol, reference compound] | 92 g/kg | 65 g/kg | 0.71
COC(C)COC(C)COC(C)COC(C)COC(C)COC(C)COCCOCC(C)C (stereo not drawn) [B-7] | 140 g/kg | 139 g/kg | 0.99
C=CCOCC(C)OCC(C)OCC(C)OCC(C)OCC(C)OCC(C)OCC(C)OC (stereo not drawn) [B-5] | 129 g/kg | 120 g/kg | 0.93
CCCCOCC(C)OCC(C)OCC(C)OCC(C)O (stereo not drawn) [A-1] | 132 g/kg | 112 g/kg | 0.85
CC(O)COC(C)COC(C)COCC(C)OCC(C)OCC(C)OCC(C)O (stereo not drawn) [A-8] | 104 g/kg | 79 g/kg | 0.76

Now from value to compound:

Amount of carbon dioxide absorption, not in coexistence of water a | Amount of carbon dioxide absorption, in coexistence of water b | Carbon dioxide absorption ratio b/a | SMILES
128 g/kg | 98 g/kg | 0.77 | CCCCOCCOCC(C)OCC(C)OCC(C)O (stereo not drawn) [A-2]
144 g/kg | 122 g/kg | 0.85 | COC(C)COC(C)COC(C)COCC(C)OCC(C)OCC(C)OCC(C)OC (stereo not drawn) [B-6]
149 g/kg | 134 g/kg | 0.90 | CCCCOCCOCCOCC(C)OCC(C)OCC(C)OCC(C)OCC(C)OC (stereo not drawn) [B-3]
72 g/kg | 56 g/kg | 0.78 | OCCCCOCCCCOCCCCO [C-3, PTMG250, reference compound]
